In US11357766B2, “Compositions and methods for treating cancer” (Texas Tech University System, priority 2017, dated 2022):

Key:
PANC1 cells = assay: AnnexinV/FITC apoptosis assay; type: cell-based, human; conditions: 48 hours
Method: Briefly, the following cells were treated at 0.2×10^6, in FIG. 2A AsPC1 cells, FIG. 2B BxPC3 cells, and in FIG. 2C PANC1 cells, which were plated and treated with 5, 7.5 and 10 μM pimavanserin tartrate for 48 hours. Percent apoptotic cells was evaluated by AnnexinV/FITC apoptosis assay using Accuri C6 flow cytometer. Studies were repeated independently 3 times.
AnnexinV/FITC apoptosis assay. The effects of pimavanserin in inducing apoptosis were assessed by AnnexinV/FITC apoptosis assay. The assay was performed by FITC AnnexinV apoptosis detection kit (BD biosciences, San Jose, Calif., USA). Briefly, 0.2×10^6 pancreatic cancer cells were plated in each well of 6-well plate and incubate overnight for the cells to attach. The cells were then treated with varying concentrations of pimavanserin tartrate. After 48 hours, cells were trypsinized and suspended in PBS. Cells were washed and re-suspended in 150 μl of annexin binding buffer. The cells were then stained with 4 μl AnnexinV FITC and 4 μl propidium iodide for 20 minutes in dark. Post incubation, the volume was adjusted to 350 μl by adding annexin binding buffer. Samples were then analyzed by flow cytometer (Accuri C6, AnnArbor, Mich., USA) as previously described by the present inventors (7).
Pimavanserin induces apoptosis in pancreatic cancer cells. In order to determine the mechanism of anti-proliferative effects of pimavanserin tartrate, apoptosis induction by pimavanserin tartrate treatment was determined in AsPC1, BxPC3 and PANC1 pancreatic cancer cells by AnnexinV/FITC assay using flow cytometer. […] Treatment of AsPC1 and BxPC3 cells with 7.5 μM pimavanserin caused 2-fold increase in apoptotic cells (FIG. 2A, 2B), whereas in PANC1 cells, a 4-fold increase in apoptotic cells was observed (FIG. 2C). […] Induction of apoptosis by pimavanserin treatment in AsPC1, BxPC3 and PANC1 cells was confirmed by cleavage of caspase 3 (FIGS. 3A-3C).

[1] = test system: orthotopically implanted PANC1-luc tumors; assay: Orthotopic pancreatic tumor model; type: in vivo
Method: 1×10^6 PANC-1 luc cells were surgically implanted on the pancreas of 4-6 week old female athymic nude mice (n=5). Mice were treated with 10 mg/kg pimavanserin tartrate at day 17 till day 69. In FIG. 5A tumor luminescence was measured about twice a week and plotted against days. Values are plotted as mean±SEM. In FIG. 5B orthotopic tumors were aseptically removed and the tumor size was compared between control and pimavanserin tartrate treated group. […] The average weight of the mice is plotted against days. Values are plotted as mean±SEM.
Orthotopic pancreatic tumor model. 4-6 week old female athymic nude mice were used for orthotopic injection. All the experiments were performed under the strict compliance and regulations approved from Institutional Animal Care and Use Committee (IACUC), Texas Tech University Health Sciences Center, Amarillo, Tex. Mice were anesthetized by using isoflorane and a minor incision was made in the left abdomen. Stably transfected luciferase-expressing PANC1 (PANC1-luc) cells were orthotopically-implanted in the pancreas. 1×10^6 exponentially growing PANC1-luc cells in 20 μl PBS suspension were injected into the sub-capsular region on the pancreas using a 30-gauge sterile needle. The peritoneum and skin incisions were closed sequentially with absorbable suture. Buprenorphine was administered as a pain killer to mice at every 8 hours for 2 days. The growth of orthotopically-implanted tumors was monitored by measuring the luminescence by IVIS imaging (Calliper Life Sciences). In order to determine the basal luminescence value, mice were imaged on the same day after injecting luciferin (3 mg/mouse, i.p.). Mice were randomly divided into two groups (control and treatment) on day 17 after orthotopic injection of PANC1 luc cells. Control group received vehicle only whereas treatment group received 10 mg/kg pimavanserin tartrate by oral gavage everyday. The study was terminated at day 69 by humanely euthanizing the mice using CO2 overdose. The mice was dissected and representative mouse from control and treatment groups were imaged for luminescence. The pancreas from control and treatment groups were aseptically excised out and snap frozen for western blot analysis, whereas few pancreas were fixed in formalin for immunohistochemical and TUNEL analysis. Mice weight was monitored once a week.
Pimavanserin inhibits the growth of orthotopic pancreatic tumors. In order to further validate the in-vivo efficacy of pimavanserin, PANC-1 luc cells were orthotopically implanted into the pancreas of athymic nude mice. After 17 days of tumor implantation, mice were treated with 10 mg/kg pimavanserin by oral gavage everyday. […] After terminating the experiment, tumors were removed and weighed. The average weight of pimavanserin treated tumors was 46% less when compared to the tumors excised form control group (FIGS. 5B & 5D). Furthermore, the inventors also compared the luminescence between both the groups in isolated pancreas.

[2] = test system: Akt, STAT3 and sonic hedgehog signaling in AsPC1, BxPC3, PANC1, and MIAPaCa2 cells; assay: Western blot analysis of whole cell lysates; type: cell-based, human; conditions: 48 hours
Method: Briefly, in FIG. 3A AsPC1 cells, FIG. 3B BxPC3 cells, FIG. 3C PANC1 cells, and FIG. 3D MIAPaCa2 cells, were treated with 5, 7.5 and 10 μM pimavanserin tartrate for 48 hours. Representative blots showing a concentration-dependent effect of pimavamserin tartrate on pAkt(S473), pSTAT3(Y705), c-Myc, Oct-4, SOX-2, NANOG, CD44, GLI1, cleaved caspase3. β-actin was used as a loading control. Figures shown are the representative blots of at least three independent tests.
Western blot analysis. AsPC1, BxPC3, PANC1, and MIAPaCa2 cells were treated with varying concentrations of pimavanserin tartrate for 48 hours. After 48 hours, cells were collected and subjected to PBS wash twice. The whole cell lysates were prepared using 4% (w/v) CHAPS in urea-tris buffer. Protein content in the lysates were estimated using Bradford reagent (Bio-rad, California, USA). 40 μg of protein from whole cell lysates were subjected to SDS-PAGE and the resolved proteins were transferred onto PVDF membrane. The membranes were probed for primary antibodies against pSTAT3(Y705), pAkt(S473), β-catenin, c-Myc, OCT4, SOX-2, NANOG, CD44, GLI1, cleaved caspase-3 and β-actin. All primary antibodies were procured from Cell Signaling Technologies (Danvers, Mass.) except β-actin (Sigma Aldrich, St. Louis, Mo.). Dilution factor was 1:1000 for all the antibodies from Cell Signaling and 1:2000 for β-actin antibody. The membranes were developed as described by the present inventors (16).
Inhibition of Akt, STAT3 and sonic hedgehog signaling by pimavanserin. Since significant growth suppressive effects and apoptosis by pimavanserin treatment were observed, the inventors further elucidated the molecular mechanism by which pimavanserin mediates the above-mentioned effects. The inventors performed western blot analysis using whole cell lysates from AsPC1, BxPC3, PANC1, and MIAPaCa2 cells treated with 0, 5, 7.5 and 10 μM pimavanserin for 48 hours. […] Akt and STAT3 signaling modulates OCT-4, SOX-2, NANOG to activate GLI1, a transcription factor involved in sonic hedgehog signaling (7).

[3] = 0, 5, 7.5 and 10 μM, all the cell lines tested, concentration dependent

CC(C)COc1ccc(CNC(=O)N(Cc2ccc(F)cc2)C2CCN(C)CC2)cc1 [pimavanserin, N-(4-fluorophenylmethyl)-N-(1-methylpiperidin-4-yl)-N′-(4-(2-methylpropyloxy)phenylmethyl)carbamide]
increase in apoptotic cells (PANC1 cells; 7.5 μM): 4 fold
increase in apoptotic cells (PANC1 cells; 10 μM): 5 fold
overall weight of the mice vs control (general signs of toxicity) ([1]; 10 mg/kg oral gavage everyday): did not reduce
suppression of orthotopic pancreatic tumor growth ([1]; 10 mg/kg oral gavage everyday): 75%
total flux (luminescence) at the end of the experiment ([1]; 10 mg/kg oral gavage everyday from day 17, day 69, control 1.45542×10^9 photons/second): 3.386×10^8 photons/sec
decrease of luminescence vs control group ([1]; 10 mg/kg oral gavage everyday, end of the experiment): 75%
average weight of tumors, less than control group ([1]; 10 mg/kg oral gavage everyday, excised tumors after terminating the experiment): 46%
expression of GLI1 [2, 3]: significantly inhibited
phosphorylation of STAT3 at Tyr705 [2, 3]: significantly inhibited
cancer stem cell markers OCT4, SOX-2, NANOG and CD44 [2]: remarkable inhibition
phosphorylation of Akt at Ser473 ([2]; AsPC1, BxPC3, and MIAPaCa2 cells): significantly reduced
expression of β-catenin ([2]; all the cell lines tested): reduced
cleavage of caspase 3 ([2]; pancreatic cancer cells, concentration dependent): significant cleavage
